Reference: patent US20060241177A1, “Novel compounds, pharmaceutical compositions containing same, and methods of use for same” (priority 2002, published 2006)

Tests used:
[1] = Weight loss screen in Balb/C mice; type: in vivo
Experimental: Weight Loss Screen for Novel FAS Inhibitors
Balb/C mice (Jackson Labs) are utilized for the initial weight loss screening. Animals are housed in temperature and 12 hour day/night cycle rooms and fed mouse chow and water ad lib. Three mice are utilized for each compound tested with vehicle controls in triplicate per experiment. For the experiments, mice are housed separately for each compound tested three mice to a cage. Compounds are diluted in DMSO at 10 mg/ml when given at a dose of 30 mg/kg, and 30 mg/ml when given at a dose of 60 mg/kg, and mice are injected intraperitoneally with 60 mg/kg in approximately 100 μl of DMSO or with vehicle alone. Mice are observed and weighed daily; average weights and standard errors are computed with Excel (Microsoft). The experiment continues until treated animals reach their pretreatment weights. Select compounds are tested in animals housed in metabolic cages.
Dosing of animals are identical to the screening experiments with three animals to a single metabolic cage. Animal weights, water and food consumption, and urine and feces production are measured daily. Three lean Balb/C mice (Harlan) maintained on mouse chow, are treated with compounds at doses indicated on day 0 or with vehicle (DMSO) control of equal volume. Compound 6 was solubilized in 40 μl DMSO while Compound 8 was solubilized in 60 μl DMSO. All were injected intraperitoneally. Weights were measured on days indicated. Error bars represent standard error of the mean.

[2] = biological target: T1, Carnitine Palmitoyltransferase-1 (CPT-1) (Homo sapiens, UniProt P50416); assay: Carnitine palmitoyltransferase-1 (CPT-1) assay in permeabilized MCF-7 cells; type: cell-based; conditions: MCF at 10 ug.ml
T1 construct: This assay uses permeabilized cells to measure the transfer of [methyl-^14C]L-carnitine; endogenous in cells; host or cells: MCF-7 cells, digitonin-permeabilized
T1 sequence (P50416 1-773): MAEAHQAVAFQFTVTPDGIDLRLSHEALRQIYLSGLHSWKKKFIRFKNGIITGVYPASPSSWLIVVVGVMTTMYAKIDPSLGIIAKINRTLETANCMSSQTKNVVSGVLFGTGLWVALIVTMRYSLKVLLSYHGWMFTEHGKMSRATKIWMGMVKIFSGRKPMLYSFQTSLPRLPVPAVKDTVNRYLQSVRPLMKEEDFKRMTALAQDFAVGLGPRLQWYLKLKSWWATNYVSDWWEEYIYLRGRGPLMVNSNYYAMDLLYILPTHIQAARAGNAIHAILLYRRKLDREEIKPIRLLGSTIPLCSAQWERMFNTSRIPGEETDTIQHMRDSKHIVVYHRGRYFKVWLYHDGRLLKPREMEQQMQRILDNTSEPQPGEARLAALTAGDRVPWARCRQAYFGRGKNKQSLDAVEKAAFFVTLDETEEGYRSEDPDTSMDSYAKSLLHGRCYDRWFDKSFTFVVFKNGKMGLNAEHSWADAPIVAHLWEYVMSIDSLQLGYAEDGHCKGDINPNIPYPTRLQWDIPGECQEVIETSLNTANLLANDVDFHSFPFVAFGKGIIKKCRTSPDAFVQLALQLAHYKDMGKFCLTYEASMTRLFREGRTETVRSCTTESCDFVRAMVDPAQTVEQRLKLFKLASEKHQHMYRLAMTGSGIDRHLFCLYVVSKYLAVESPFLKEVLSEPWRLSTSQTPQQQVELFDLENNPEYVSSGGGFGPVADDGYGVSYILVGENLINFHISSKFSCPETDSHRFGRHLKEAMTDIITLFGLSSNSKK
Experimental: Carnitine Palmitoyltransferase-1 (CPT-1) Assay
CPT-1 catalyzes the ATP dependent transfer of long-chain fatty acids from acyl-CoA to acyl-carnitine that is inhibited by malonyl-CoA. As CPT-1 requires the mitochondrial membrane for activity, enzyme activity is measured in permeabilized cells or mitochondria This assay uses permeabilized cells to measure the transfer of [methyl-^14C]L-carnitine to the organically soluble acyl-carnitine deriviative.
MCF-7 cells are plated in DMEM with 10% fetal bovine serum at 10^6 cells in 24-well plates in triplicate for controls, drugs, and malonyl-CoA. Two hours before commencing the assay, drugs are added at the indicated concentrations made from stock solutions at 10 mg/ml in DMSO, vehicle controls consist of DMSO without drug. Since malonyl-CoA cannot enter intact cells, it is only added in the assay buffer to cells that have not been preincubated with drugs. Following overnight incubation at 37° C., the medium is removed and replaced with 700 μl of assay buffer consisting of: 50 mM imidazole, 70 mM KCl, 80 mM sucrose, 1 mM EGTA, 2 mM MgCl2, 1 mM DTT, 1 mM KCN, 1 mM ATP, 0.1% fatty acid free bovine serum albumin, 70 μM palmitoyl-CoA, 0.25 μCi [methyl-^14C]L-carnitine, 40 μg digitonin with drug, DMSO vehicle control, or 20 μM malonyl-CoA. […] The butanol phase is counted by liquid scintillation and represents the acylcarnitine derivative.

[3] = 30 mg/kg i.p., day 1, three Balb/C mice per compound

C=CCNC(=O)[C@@H]1C(=C)C(=O)O[C@H]1CCCCCCCC (racemic)
Deaths in weight loss screen ([1]; 60 mg/kg i.p., day 3, three Balb/C mice per compound): 3 of 3 dead
CPT I Stim [2]: 400% of control/MCF

C=CCNC(=O)[C@@H]1C(=C)C(=O)O[C@H]1CCCCCC (racemic)
Deaths in weight loss screen [1, 3]: 1 of 3 dead

C=CCNC(=O)[C@@H]1C(=C)C(=O)O[C@H]1CCCC (racemic)
Deaths in weight loss screen ([1]; 30 mg/kg i.p., day 2, three Balb/C mice per compound): 3 of 3 dead

C=C1C(=O)O[C@@H](CCCCCCCC)[C@@H]1C(=O)NCC(=O)OC (racemic)
Deaths in weight loss screen [1, 3]: 3 of 3 dead

C=C1C(=O)O[C@@H](CCCCCCCC)[C@@H]1C(=O)NCC(=O)O (racemic)
Deaths in weight loss screen ([1]; 30 mg/kg i.p., day 6, three Balb/C mice per compound): 1 death
